Assay results published in US7138361B2, “Herbicidal heterocycles” (E. I. du Pont de Nemours and Company, priority 2000, dated 2006).

What was measured:
Format in all cases: in vivo
rice (Oryza saliva) [1] = assay: Test C flooded paddy test; details: for Rice plant response rating: Flooded Paddy, scale 0 to 100, 0 no effect, 100 complete control; for Plant response rating, Rice: flooded paddy test, scale 0 to 100 (0 no effect, 100 complete control)
Outline: (§1)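 Ratings come from visual comparison with control plants after 12 to 14 days in the greenhouse. Each species was at the 2-leaf stage when the flooded paddy was treated. Scores run from 0, meaning no effect, to 100, meaning complete control.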

[2] = system: smallflower flatsedge (Cyperus difformis); assay: Test C flooded paddy test; details: for Flatsedge plant response rating: Flooded Paddy, scale 0 to 100, 0 no effect, 100 complete control; for Plant response rating, Flatsedge: flooded paddy test, scale 0 to 100 (0 no effect, 100 complete control)
Outline: as §1

[3] = system: barnyardgrass (Echinochloa crus-galli); assay: Test C flooded paddy test; details: for Barnyardgrass plant response rating: Flooded Paddy, scale 0 to 100, 0 no effect, 100 complete control; for Plant response rating, Barnyardgrass: flooded paddy test, scale 0 to 100 (0 no effect, 100 complete control)
Outline: as §1

[4] = system: duck salad (Heteranthera limosa); assay: Test C flooded paddy test; details: for Ducksalad plant response rating: Flooded Paddy, scale 0 to 100, 0 no effect, 100 complete control; for Plant response rating, Ducksalad: flooded paddy test, scale 0 to 100 (0 no effect, 100 complete control)
Outline: as §1

[5] = system: velvetleaf (Abutilon theophrasti); assay: Test B preemergence
From the text: (§2) Seeds selected from barnyardgrass (Echinochloa crus-galli), Surinam grass (Brachiaria decumbens), cocklebur (Xanthium strumarium), corn (Zea mays), crabgrass (Digitaria sanguinalis), giant foxtail (Setaria faberii), lambsquarters (Chenopodium album), morning glory (Ipomoea hederacea), pigweed (Amaranthus retroflexus), rice (Oryza saliva) and velvetleaf (Abutilon theophrasti) were planted and treated preemergence with test chemicals formulated in a non-phytotoxic solvent mixture which included a surfactant.
(§3) At the same time, plants selected from these crop and weed species and also blackgrass (Alopecurus myosuroides), wheat (Triticum aestivum) and wild oat (Avena fatua) were treated with postemergence applications of test chemicals formulated in the same manner. Plants ranged in height from 2 to 18 cm (1- to 4-leaf stage) for postemergence treatments. Plant species in the flooded paddy test consisted of rice (Oryza saliva), smallflower flatsedge (Cyperus difformis), duck salad (Heteranthera limosa) and barnyardgrass (Echinochloa crus-galli) grown to the 2-leaf stage for testing. Treated plants and controls were maintained in a greenhouse for 13 to 15 days, after which time all species were compared to controls and visually evaluated. Plant response ratings, summarized in Table B, are based on a scale of 0 to 100 where 0 is no effect and 100 is complete control. A dash (-) response means no test result.

corn (Zea mays) [6] = assay: Test B preemergence
From the text: as §2, §3

[7] = system: crabgrass (Digitaria sanguinalis); assay: Test B preemergence
From the text: as §2, §3

rice (Oryza saliva) [8] = assay: Test B preemergence
From the text: as §2, §3

[9] = system: morning glory (Ipomoea hederacea); assay: Test B preemergence
From the text: as §2, §3

[10] = system: giant foxtail (Setaria faberii); assay: Test B preemergence
From the text: as §2, §3

[11] = system: lambsquarters (Chenopodium album); assay: Test B preemergence
From the text: as §2, §3

[12] = system: barnyardgrass (Echinochloa crus-galli); assay: Test B preemergence
From the text: as §2, §3

[13] = system: Surinam grass (Brachiaria decumbens); assay: Test B preemergence
From the text: as §2, §3

[14] = system: cocklebur (Xanthium strumarium); assay: Test B preemergence
From the text: as §2, §3

[15] = system: pigweed (Amaranthus retroflexus); assay: Test B preemergence
From the text: as §2, §3

[16] = system: velvetleaf (Abutilon theophrasti); assay: Test B postemergence; details: 13 to 15 days
From the text: as §2, §3

corn (Zea mays) [17] = assay: Test B postemergence; details: 13 to 15 days
From the text: as §2, §3

[18] = system: blackgrass (Alopecurus myosuroides); assay: Test B postemergence; details: 13 to 15 days
From the text: as §2, §3

wild oat (Avena fatua) = assay: Test B postemergence; details: 13 to 15 days
From the text: as §2, §3

[19] = system: crabgrass (Digitaria sanguinalis); assay: Test B postemergence; details: 13 to 15 days
From the text: as §2, §3

[20] = system: morning glory (Ipomoea hederacea); assay: Test B postemergence; details: 13 to 15 days
From the text: as §2, §3

[21] = system: giant foxtail (Setaria faberii); assay: Test B postemergence; details: 13 to 15 days
From the text: as §2, §3

[22] = system: lambsquarters (Chenopodium album); assay: Test B postemergence; details: 13 to 15 days
From the text: as §2, §3

[23] = system: wheat (Triticum aestivum); assay: Test B postemergence; details: 13 to 15 days
From the text: as §2, §3

[24] = system: barnyardgrass (Echinochloa crus-galli); assay: Test B postemergence; details: 13 to 15 days
From the text: as §2, §3

[25] = system: Surinam grass (Brachiaria decumbens); assay: Test B postemergence; details: 13 to 15 days
From the text: as §2, §3

[26] = system: cocklebur (Xanthium strumarium); assay: Test B postemergence; details: 13 to 15 days
From the text: as §2, §3

[27] = system: pigweed (Amaranthus retroflexus); assay: Test B postemergence; details: 13 to 15 days
From the text: as §2, §3

[28] = Preemergence, Rate 500 g/ha, scale 0 to 100, 0 no effect, 100 complete control
[29] = preemergence, Rate 125 g/ha, scale of 0 to 100 where 0 is no effect and 100 is complete control, 13 to 15 days
[30] = Rate 125 g/ha, scale 0 (no effect) to 100 (complete control)
[31] = Rate 500 g/ha, scale 0 to 100, 0 is no effect, 100 is complete control

## CC(C)(C)c1ccn(C2OCN(c3cccc(OC(F)(F)F)c3)C2=O)n1 (stereo not drawn) [Compound 66]
Rice (Oryza saliva) [1]; Rate 250 g/ha
  Rice plant response rating: 50
Rice (Oryza saliva) [1]; Rate 500 g/ha
  Rice plant response rating: 100
Rice (Oryza saliva) [1]; Rate 62 g/ha
  Plant response rating, Rice: 0
Rice (Oryza saliva) [1]; Rate 125 g/ha
  Plant response rating, Rice: 0
[2]; Rate 250 g/ha
  Flatsedge plant response rating: 100
[2]; Rate 500 g/ha
  Flatsedge plant response rating: 100
[2]; Rate 62 g/ha
  Plant response rating, Flatsedge: 100
[2]; Rate 125 g/ha
  Plant response rating, Flatsedge: 100
[3]; Rate 250 g/ha
  Barnyardgrass plant response rating: 100
[3]; Rate 500 g/ha
  Barnyardgrass plant response rating: 100
[3]; Rate 62 g/ha
  Plant response rating, Barnyardgrass: 70
[3]; Rate 125 g/ha
  Plant response rating, Barnyardgrass: 100
[4]; Rate 250 g/ha
  Ducksalad plant response rating: 100
[4]; Rate 500 g/ha
  Ducksalad plant response rating: 100
[4]; Rate 62 g/ha
  Plant response rating, Ducksalad: 30
[4]; Rate 125 g/ha
  Plant response rating, Ducksalad: 90
[5]; [28]
  Plant response rating, Velvetleaf: 20
[5]; [29]
  Plant response rating, Velvetleaf: 0
Corn (Zea mays) [6]; [28]
  Plant response rating, Corn: 0
Corn (Zea mays) [6]; [29]
  Plant response rating, Corn: 0
[7]; [28]
  Plant response rating, Crabgrass: 40
[7]; [29]
  Plant response rating, Crabgrass: 0
Rice (Oryza saliva) [8]; [28]
  Plant response rating, Rice: 20
Rice (Oryza saliva) [8]; [29]
  Plant response rating, Rice: 0
[9]; [28]
  Plant response rating, Morningglory: 20
[10]; [28]
  Plant response rating, Foxtail, Giant: 40
[10]; [29]
  Plant response rating, Foxtail, Giant: 20
[11]; [28]
  Plant response rating, Lambsquarters: 100
[11]; [29]
  Plant response rating, Lambsquarters: 100
[12]; [28]
  Plant response rating, Barnyardgrass: 100
[12]; [29]
  Plant response rating, Barnyardgrass: 100
[13]; [28]
  Plant response rating, Surinam grass: 20
[13]; [29]
  Plant response rating, Surinam grass: 20
[14]; [28]
  Plant response rating, Cocklebur: 0
[15]; [28]
  Plant response rating, Pigweed: 100
[15]; [29]
  Plant response rating, Pigweed: 100
[16]; [30]
  Plant response rating, Velvetleaf: 20
[16]; [31]
  Plant response rating, Velvetleaf: 20
Corn (Zea mays) [17]; [30]
  Plant response rating, Corn: 0
Corn (Zea mays) [17]; [31]
  Plant response rating, Corn: 0
[18]; [30]
  Plant response rating, Blackgrass: 0
[18]; [31]
  Plant response rating, Blackgrass: 0
Wild oat (Avena fatua); [30]
  Plant response rating, Wild Oat: 0
Wild oat (Avena fatua); [31]
  Plant response rating, Wild Oat: 0
[19]; [30]
  Plant response rating, Crabgrass: 30
[19]; [31]
  Plant response rating, Crabgrass: 100
[20]; [30]
  Plant response rating, Morningglory: 0
[20]; [31]
  Plant response rating, Morningglory: 0
[21]; [30]
  Plant response rating, Foxtail, Giant: 0
[21]; [31]
  Plant response rating, Foxtail, Giant: 60
[22]; [30]
  Plant response rating, Lambsquarters: 90
[22]; [31]
  Plant response rating, Lambsquarters: 90
[23]; [30]
  Plant response rating, Wheat: 0
[23]; [31]
  Plant response rating, Wheat: 0
[24]; [30]
  Plant response rating, Barnyardgrass: 100
[24]; [31]
  Plant response rating, Barnyardgrass: 100
[25]; [30]
  Plant response rating, Surinam grass: 0
[25]; [31]
  Plant response rating, Surinam grass: 30
[26]; [30]
  Plant response rating, Cocklebur: 0
[26]; [31]
  Plant response rating, Cocklebur: 20
[27]; [30]
  Plant response rating, Pigweed: 0
[27]; [31]
  Plant response rating, Pigweed: 0

## Cc1c(Cl)cc(N2CCC(n3ccc(C(C)(C)C)n3)C2=O)cc1Cl (stereo not drawn) [Compound 74]
Rice (Oryza saliva) [1]; Rate 250 g/ha
  Rice plant response rating: 0
Rice (Oryza saliva) [1]; Rate 500 g/ha
  Rice plant response rating: 0
Rice (Oryza saliva) [1]; Rate 62 g/ha
  Plant response rating, Rice: 0
Rice (Oryza saliva) [1]; Rate 125 g/ha
  Plant response rating, Rice: 0
[2]; Rate 250 g/ha
  Flatsedge plant response rating: 0
[2]; Rate 500 g/ha
  Flatsedge plant response rating: 40
[2]; Rate 62 g/ha
  Plant response rating, Flatsedge: 0
[2]; Rate 125 g/ha
  Plant response rating, Flatsedge: 0
[3]; Rate 250 g/ha
  Barnyardgrass plant response rating: 0
[3]; Rate 500 g/ha
  Barnyardgrass plant response rating: 0
[3]; Rate 62 g/ha
  Plant response rating, Barnyardgrass: 0
[3]; Rate 125 g/ha
  Plant response rating, Barnyardgrass: 0
[4]; Rate 250 g/ha
  Ducksalad plant response rating: 0
[4]; Rate 500 g/ha
  Ducksalad plant response rating: 0
[4]; Rate 62 g/ha
  Plant response rating, Ducksalad: 0
[4]; Rate 125 g/ha
  Plant response rating, Ducksalad: 0
[5]; [28]
  Plant response rating, Velvetleaf: 0
[5]; [29]
  Plant response rating, Velvetleaf: 0
Corn (Zea mays) [6]; [28]
  Plant response rating, Corn: 0
Corn (Zea mays) [6]; [29]
  Plant response rating, Corn: 0
[7]; [28]
  Plant response rating, Crabgrass: 70
[7]; [29]
  Plant response rating, Crabgrass: 20
Rice (Oryza saliva) [8]; [28]
  Plant response rating, Rice: 0
Rice (Oryza saliva) [8]; [29]
  Plant response rating, Rice: 0
[9]; [28]
  Plant response rating, Morningglory: 0
[9]; [29]
  Plant response rating, Morningglory: 0
[10]; [28]
  Plant response rating, Foxtail, Giant: 60
[10]; [29]
  Plant response rating, Foxtail, Giant: 0
[11]; [28]
  Plant response rating, Lambsquarters: 100
[11]; [29]
  Plant response rating, Lambsquarters: 100
[12]; [28]
  Plant response rating, Barnyardgrass: 90
[12]; [29]
  Plant response rating, Barnyardgrass: 30
[13]; [28]
  Plant response rating, Surinam grass: 20
[13]; [29]
  Plant response rating, Surinam grass: 0
[14]; [28]
  Plant response rating, Cocklebur: 0
[14]; [29]
  Plant response rating, Cocklebur: 0
[15]; [28]
  Plant response rating, Pigweed: 90
[15]; [29]
  Plant response rating, Pigweed: 80
[16]; [30]
  Plant response rating, Velvetleaf: 0
[16]; [31]
  Plant response rating, Velvetleaf: 0
Corn (Zea mays) [17]; [30]
  Plant response rating, Corn: 0
Corn (Zea mays) [17]; [31]
  Plant response rating, Corn: 0
[18]; [30]
  Plant response rating, Blackgrass: 0
[18]; [31]
  Plant response rating, Blackgrass: 0
Wild oat (Avena fatua); [30]
  Plant response rating, Wild Oat: 0
Wild oat (Avena fatua); [31]
  Plant response rating, Wild Oat: 0
[19]; [30]
  Plant response rating, Crabgrass: 0
[19]; [31]
  Plant response rating, Crabgrass: 0
[20]; [30]
  Plant response rating, Morningglory: 0
[20]; [31]
  Plant response rating, Morningglory: 0
[21]; [30]
  Plant response rating, Foxtail, Giant: 0
[21]; [31]
  Plant response rating, Foxtail, Giant: 0
[22]; [30]
  Plant response rating, Lambsquarters: 0
[22]; [31]
  Plant response rating, Lambsquarters: 0
[23]; [30]
  Plant response rating, Wheat: 0
[23]; [31]
  Plant response rating, Wheat: 0
[24]; [30]
  Plant response rating, Barnyardgrass: 0
[24]; [31]
  Plant response rating, Barnyardgrass: 0
[25]; [30]
  Plant response rating, Surinam grass: 0
[25]; [31]
  Plant response rating, Surinam grass: 0
[26]; [30]
  Plant response rating, Cocklebur: 0
[26]; [31]
  Plant response rating, Cocklebur: 0
[27]; [30]
  Plant response rating, Pigweed: 80
[27]; [31]
  Plant response rating, Pigweed: 90
